The subject of one test is HIV-1 strain IIIB. Description: Retrovirucidal effect on HIV-1 strain IIIB (Table 3). The class given is cell-based. The settings on record: for HIV1 pIC50 strain IIIB: pIC50=-log IC50, IC50 in M. The gist of the method: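 Virus (100 TCID50 HIV-1 in cell supernatant) exposed to compound 3 h at room temperature, then washed free of compound by membrane filtration. Residual infectivity measured on P4 cells after one day as β-galactosidase activity with MUG substrate (3 h, 37° C), read by fluorescence.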

In another test the test system is HIV-1 strain 103 N. In words: Retrovirucidal effect on HIV-1 strain 103 N (Table 3). The class given is cell-based. The settings on record: HIV-1 strain 103N (RT Lys-103 to Asn mutant); pIC50=-log IC50, IC50 in M. As for the experimental part: HIV-1 viral suspensions were obtained by coculture of MT4 cells and H9 cells chronically infected by HIV-ILai isolate. 200 μl of a cell supernatant containing viral particles (HIV-ILai: 100 TCID50) were incubated at room temperature with various concentrations of different inhibitors. After 3 hours, virions were washed through 0.02 μm anopore membrane in 1.5 mL Vectaspin tube (Whatman) for 10 minutes at 5 000 g. Each of the three subsequent washes was performed in the same conditions after the viral concentrate was refilled with 500 μL of RPMI medium. Then, the viral concentrate was readjusted to the initial volume with RPMI plus 10% foetal calf serum (FCS). The residual infectivity was assayed on P4 cells as described by CHARNEAU et al. (1994, J. Mol. Biol., 241, 651-662). Briefly, P4 cells were plated using 100 μL of DMEM medium plus 10% FCS in 96 plate multi-wells at 20×10^5 cells per mL. After overnight incubation at 37° C., the supernatant was discarded and the viral preparation (200 μL) was added. One day later the wells were washed three times in PBS. Each well was refilled with 200 μL of a reaction buffer containing 50 mM Tris-HCl pH 8.5, 100 mM 2-mercaptoethanol, 0.05% Triton X-100 and 5 mM 4-methylumbelliferyl β-D-galactopyranoside (MUG). After 3 hours at 37° C., the level of the reaction was measured in a fluorescence microplate reader.
The retrovirucidal effect of each pyridinone derivative listed in table 3 has been assayed according to the teachings of example 2, excepted that the anti-viral effect has been tested on the two following HIV-1 strains:
b) HIV-1 strain 103 N which is a mutant strain bearing a point mutation in the reverse transcriptase gene leading to an enzyme wherein the initial Lys-103 residue is replaced for a Asn residue.
The HIV-1 103 N strain has also been described by SAHLBERG et al.,(1998, Antiviral Res., 37 (3): ASS) and BALZARiNI et al. (1996, Antimicrobial Agents and Chemotherapy, 40 (6): 1454-1466).

Bounds are passed on as bounds.

Regarding `CCc1c(C)[nH]c(=O)c(N(C)C)c1Cc1cc(C)cc(C)c1` [Compound 3], the “HIV1 pIC50 strain IIIB” value with HIV-1 strain IIIB is on record as 8.004. In addition, in the test with HIV-1 strain 103 N, the “HIV1 pIC50 strain 103N” value is 7.438.
On the same counts, the results for `CCc1c(C)[nH]c(=O)c(N(C)CCOC)c1C(=O)c1cccc(C)c1` [Compound 175] are 8.921 and 7.717.
The corresponding values for `CCCNc1c(Cc2cc(C)cc(C)c2)c(CC)c(C)[nH]c1=O` [Compound 82] are 7.735 and 5.813.
On the same counts, the results for `CCc1c(C)[nH]c(=O)c(N)c1Cc1cccc(F)c1` [Compound 41] are 5.131 and 4.473.
Regarding `Cc1cc(C)cc(Cc2cc(C)[nH]c(=O)c2N)c1` [Compound 100], the “HIV1 pIC50 strain IIIB” value in the test with HIV-1 strain IIIB stood at 4.871. The “HIV1 pIC50 strain 103N” value in the test with HIV-1 strain 103 N is below 4.
Regarding `Cc1cc(C)cc(Cc2cc(C)[nH]c(=O)c2N(C)C)c1` [Compound 101], the “HIV1 pIC50 strain IIIB” value with HIV-1 strain IIIB was 6.341. Moreover, the “HIV1 pIC50 strain 103N” value with HIV-1 strain 103 N worked out at 4.25.
`CCc1c(C)[nH]c(=O)c(N(C)C)c1[S+]([O-])c1cc(C)cc(C)c1` (centres unmarked) [Compound 170]: the “HIV1 pIC50 strain IIIB” value with HIV-1 strain IIIB came out at 8.553. Also, the “HIV1 pIC50 strain 103N” value in the test with HIV-1 strain 103 N came to 7.224.
On the same counts, the results for `CCc1c(C)[nH]c(=O)c(N(C)C)c1Cc1ccc(C)cc1C` [Compound 34] are 5.019 and below 4.
On the same counts, the results for `CCc1c(Cc2cc(C)cc(C)c2)c(N(C)C)c(=O)n(Cc2ccccc2)c1C` [Compound 22] are 4.603 and below 4.
On to `CCc1c(C)[nH]c(=O)c(N(C)C)c1C(=O)c1cc(Cl)cc(Cl)c1` [Compound 192], for which, in the test on HIV-1 strain IIIB, the “HIV1 pIC50 strain IIIB” value stood at 8.699. The “HIV1 pIC50 strain 103N” value in the test with HIV-1 strain 103 N came to 8.319.
On the same counts, the results for `CCc1c(C)[nH]c(=O)c(N)c1Cc1ccnc2ccccc12` [Compound 74] are below 4 and below 4.
Turning to `CCc1c(C)[nH]c(=O)c(N)c1Sc1cc(C)cc(C)c1` [Compound 1], in the test with HIV-1 strain IIIB, the “HIV1 pIC50 (pIC50=−log IC50)” value is 7,6999 and the “HIV1 pIC50 strain IIIB” value came out at 7.699. Besides, the “HIV1 pIC50 strain 103N” value in the test on HIV-1 strain 103 N was 6.671.
With `CCc1c(C)[nH]c(=O)c(N(C)C)c1C(=O)c1cccc(Br)c1` [Compound 174], the “HIV1 pIC50 strain IIIB” value with HIV-1 strain IIIB is given as 8.921. For the same compound, in the test on HIV-1 strain 103 N, the “HIV1 pIC50 strain 103N” value was found to be 7.68.
Take `CCc1c(C)[nH]c(=O)c(N(C)C)c1Sc1cc(C)cc(C)c1` [Compound 149]: in the test with HIV-1 strain IIIB, the “HIV1 pIC50 strain IIIB” value is reported as 8.959. In the test with HIV-1 strain 103 N, the “HIV1 pIC50 strain 103N” value was 7.883.
On the same counts, the results for `CCc1c(C)[nH]c(=O)c(N)c1Cc1ccc(C)cc1` [Compound 8] are 4.373 and 4.39.
On to `CCc1c(C)[nH]c(=O)c(N(C)C)c1Sc1cccc(Br)c1` [Compound 193], for which the “HIV1 pIC50 strain IIIB” value in the test on HIV-1 strain IIIB came out at 8.481. Also, the “HIV1 pIC50 strain 103N” value in the test on HIV-1 strain 103 N was determined as 7.245.
On the same counts, the results for `CCc1c(C)[nH]c(=O)c(N(C)C)c1Cc1nccs1` [Compound 66] are 7.588 and 5.72.
The corresponding values for `CCc1c(C)[nH]c(=O)c(N(C)CCOC)c1Cc1cccc(C(F)(F)F)c1` [Compound 161] are 7.821 and 5.814.
Take `Cc1cccc(Cc2c(C)c(C)[nH]c(=O)c2N(C)C)c1` [Compound 86]: the “HIV1 pIC50 strain IIIB” value with HIV-1 strain IIIB amounted to 7.863. Moreover, the “HIV1 pIC50 strain 103N” value with HIV-1 strain 103 N was 5.936.
On the same counts, the results for `CCc1c(C)[nH]c(=O)c(N)c1CNCc1ccccc1` [Compound 80] are below 4 and below 4.
On the same counts, the results for `CCc1c(C)[nH]c(=O)c(N)c1Cc1ccc(C)cc1C` [Compound 31] are below 4 and below 4.
In the case of `CCc1c(C)[nH]c(=O)c(N(C)C)c1Cc1cn(C)c2ccccc12` [Compound 43], the “HIV1 pIC50 strain IIIB” value with HIV-1 strain IIIB is reported as 7.377. Also, the “HIV1 pIC50 strain 103N” value with HIV-1 strain 103 N was 6.422.
The corresponding values for `CCc1c(C)[nH]c(=O)c(N(C)C)c1Cc1cc(F)cc(F)c1` [Compound 38] are 8.155 and 7.402.
On the same counts, the results for `Cc1cc(C)cc(Cc2c(C)c(C)[nH]c(=O)c2N)c1` [Compound 32] are 6.104 and below 5.
The corresponding values for `CCc1c(C)[nH]c(=O)c(N(C)C)c1Cc1ccccc1C` [Compound 14] are 7.676 and 5.849.
`CCc1c(C)[nH]c(=O)c(N(C)C)c1C(=O)c1ccc(OC)c(C)c1` [Compound 169]: the “HIV1 pIC50 strain IIIB” value in the test with HIV-1 strain IIIB was found to be 7.101. In addition, the “HIV1 pIC50 strain 103N” value with HIV-1 strain 103 N amounted to 5.771.
The corresponding values for `CCc1c(C)[nH]c(=O)c(N)c1C(O)c1cc(C)cc(C)c1` (centres unmarked) [Compound 6] are 5.795 and 5.026.
On the same counts, the results for `Cc1cc(C)cc(Cc2c3c([nH]c(=O)c2N(C)C)CCCC3)c1` [Compound 173] are 8.086 and 6.489.
On the same counts, the results for `CCc1c(C)[nH]c(=O)c(N(C)C)c1Cc1ccc(C)cc1` [Compound 18] are 6.454 and 4.895.
As for `CCc1c(C)[nH]c(=O)c(N(C)C)c1Cc1cccnc1` [Compound 44], in the test on HIV-1 strain IIIB, the “HIV1 pIC50 strain IIIB” value is 7.889. Besides, the “HIV1 pIC50 strain 103N” value in the test on HIV-1 strain 103 N turned out to be 6.355.
On the same counts, the results for `CCc1c(C)[nH]c(=O)c(N)c1C(=O)c1cccc(C)c1` [Compound 87] are 6.46 and 5.653.
The corresponding values for `CCCCN(CCCC)c1c(Cc2cc(C)cc(C)c2)c(CC)c(C)[nH]c1=O` [Compound 24] are 4.262 and below 4.
The corresponding values for `CCc1c(C)[nH]c(=O)c(N(C)C)c1Cc1ccc(C)c(C)c1` [Compound 19] are 7.447 and 5.947.
In the case of `CCc1c(C)[nH]c(=O)c(N(C)CCOC)c1Cc1cc(C)cc(C)c1` [Compound 78], the “HIV1 pIC50 strain IIIB” value in the test with HIV-1 strain IIIB is reported as 8.678. Also, the “HIV1 pIC50 strain 103N” value in the test on HIV-1 strain 103 N worked out at 7.128.
On the same counts, the results for `CCc1c(C)[nH]c(=O)c(N(CC)CC)c1Cc1cc(C)cc(C)c1` [Compound 12] are 8.022 and 6.363.

These data come from patent publication US6683079B2, “3-(amino-or aminoalkyl) pyridinone derivatives and their use for the treatment of HIV related diseases” (Centre National de la Recherche Scientifique, priority 1998, dated 2004).
